PMC10433220, “Oil palm kernel globulin antihypertensive peptides: isolation and characterization, ACE inhibition mechanisms, zinc-chelating activity, security and stability” (Frontiers in Pharmacology, 2023)
Where two headings read alike, the source gives them in different places. One block for each compound: values may come before it. Where no end group is shown, it is not given here.

Assays:
[1] = molecular target: T1, ACE (Oryctolagus cuniculus, UniProt P12822); set-up: method as in 2 sources, one per row (each row's own in cited_ref): ref Wang et al., 2021 ||| ref Wei et al., 2022; details: cited from earlier work
T1 construct: purchased Sigma (St. Louis, MO, United States)
T1 sequence (P12822 34-1310): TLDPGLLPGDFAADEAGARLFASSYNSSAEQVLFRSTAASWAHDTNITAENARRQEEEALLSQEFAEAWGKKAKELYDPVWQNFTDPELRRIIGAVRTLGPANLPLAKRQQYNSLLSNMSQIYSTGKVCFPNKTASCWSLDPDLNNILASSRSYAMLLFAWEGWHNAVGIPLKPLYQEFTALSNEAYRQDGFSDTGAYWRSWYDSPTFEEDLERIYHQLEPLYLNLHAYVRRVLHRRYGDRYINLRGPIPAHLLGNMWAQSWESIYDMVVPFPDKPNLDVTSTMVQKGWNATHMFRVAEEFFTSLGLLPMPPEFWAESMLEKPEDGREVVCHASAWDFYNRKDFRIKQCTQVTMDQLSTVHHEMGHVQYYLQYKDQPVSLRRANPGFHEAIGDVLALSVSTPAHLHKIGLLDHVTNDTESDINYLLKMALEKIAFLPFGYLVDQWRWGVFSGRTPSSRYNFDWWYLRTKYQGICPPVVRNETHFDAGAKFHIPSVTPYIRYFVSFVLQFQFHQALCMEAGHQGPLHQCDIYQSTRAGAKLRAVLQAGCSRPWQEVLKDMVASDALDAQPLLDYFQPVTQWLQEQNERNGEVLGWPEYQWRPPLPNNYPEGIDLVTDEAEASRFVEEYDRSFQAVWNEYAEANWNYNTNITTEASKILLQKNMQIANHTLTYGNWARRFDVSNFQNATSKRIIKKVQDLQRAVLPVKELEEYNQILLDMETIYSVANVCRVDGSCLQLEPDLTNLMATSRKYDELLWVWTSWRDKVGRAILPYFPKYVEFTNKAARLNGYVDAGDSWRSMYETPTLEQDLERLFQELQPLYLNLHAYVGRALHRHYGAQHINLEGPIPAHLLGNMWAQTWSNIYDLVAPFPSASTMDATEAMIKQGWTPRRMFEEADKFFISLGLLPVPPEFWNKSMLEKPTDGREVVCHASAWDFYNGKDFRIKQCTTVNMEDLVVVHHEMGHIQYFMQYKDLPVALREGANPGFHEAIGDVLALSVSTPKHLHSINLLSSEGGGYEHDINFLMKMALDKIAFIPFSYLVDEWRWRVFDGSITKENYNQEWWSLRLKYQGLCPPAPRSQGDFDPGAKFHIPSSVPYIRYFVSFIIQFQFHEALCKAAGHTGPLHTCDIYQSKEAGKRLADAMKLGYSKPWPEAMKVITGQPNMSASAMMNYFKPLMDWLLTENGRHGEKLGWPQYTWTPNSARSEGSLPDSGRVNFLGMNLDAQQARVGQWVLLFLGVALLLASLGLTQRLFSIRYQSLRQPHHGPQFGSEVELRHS

[2] = Zinc solubility of peptide-Zn complexes during simulated gastrointestinal digestion; type: in vitro ADME; details: simulated intestinal digestion, from 120 to 240 min; p < 0.05
Procedure: Simultaneously, 5 mg of the DOPKGH peptide-Zn complexes was mixed with 50 mL of simulated gastric digested mucus (pH 2.00 ± 0.10) ([Sun et al., 2021]). After shaking at 37°C and 135 rpm for 90 min, Na2HPO4 (0.5 mol/L) was added and the mixture was quickly stirred until the pH of the digest increased to 6.80 ± 0.10. […] The stability of DOPKGH peptide-Zn complexes was expressed as the residual zinc concentration after digestion and as a percentage of the zinc concentration before digestion.

[3] = Zn-chelating ability (4-(2-Pyridinazo)-resorcinol method); type: physicochemical; details: 350 μg sample, zinc sulfate 0.25 mmol/L, DTT, HEPES-KOH buffer, 37°C, 12 min, PAR method, absorbance 500 nm; mean ± SD, at least three repeats
Procedure: DOPKGH peptides (350 μg), 0.5 mL zinc sulfate solution (0.25 mmol/L), 0.5 mL DTT (8 mmol/L), 1 mL HEPES-KOH buffer (100 μmol/L), and 8 mL dH2O were mixed thoroughly ([Li et al., 2023]). After stirring at 175 r/min and 37°C for 12 min, the zinc concentration of the reaction solution was measured using the 4-(2-Pyridinazo)-resorcinol method ([Udechukwu et al., 2018]). The standard regression curve of the zinc concentration (x, μg/mL) with absorbance at 500 nm (y) was y = 0.0901n(x) + 0.1012, and R^2 = 0.9802 ([Li et al., 2023]). The zinc chelation rate was defined as the reduction of zinc ions in the reaction solution per unit mass of sample (mg/g).
Amino acid sequence identification was conducted using a Q Exactive hybrid quadrupole orbitrap mass spectrometer (Thermo Fisher, Bremen, Germany) coupled with Peak-Studio-7.5-De-Novo™ software (Bioinformatics Solutions, Inc., Waterloo, Canada) according to the method described by [Li et al. (2022)]. The DOPKGH sequences were verified by matching with the sequences of Elaeis guineensis recorded in the Biotechnology Information Database (Bethesda, MD, United States). The Zn-chelating ability of the obtained sequences was measured using the 4-(2-Pyridinazo)-resorcinol method ([Udechukwu et al., 2018]). […] In addition, the physicochemical characteristics of the screened DOPKGH sequences were analyzed using the AHTPDB database.

[4] = molecular target: T1, ACE; test: ACE inhibitory activity (HHL substrate, hippuric acid absorbance at 228 nm); type: biochemical; details: synthesized peptide, untreated; ACE 25 mU, HHL 8.3 mmol/L, 37°C, 60 min, absorbance 228 nm; from regression y = 10.985 ln(x) ‒ 0.8859, R2 = 0.9458; read-out: ACE inhibition capacity (IC50)
Procedure: (§1) ACE inhibitory activity was determined using the procedure described by [Zaharuddin et al. (2022)]. Briefly, ACE (25 mU) was pre-incubated at 37°C for 10 min. Then ACE (75 µL), 225 µL of HHL (8.3 mmol/L), and the peptide solution (75 µL) were mixed and stirred at 75 rpm and 37°C for 60 min. The reaction was stopped by adding 375 µL of HCl (1 mol/L). Afterward 2.1 mL of ethyl acetate was added to extract the hippuric acid produced. The mixture was centrifuged at 14,000 g for 150 s. Subsequently, 1 mL of the upper solution (ethyl acetate extraction) was transferred to a glass test tube and heated at 120°C for 32 min. The tube was cooled to 25°C, deionized water (1 mL) was added, and the absorbance was measured at 228 nm. The control group was subjected to the same procedure, but without samples. The ACE inhibition ability of the samples was defined as the percentage of the difference in absorbance at 228 nm between the sample and control as compared to the absorbance at 228 nm of the control. The concentration of peptides required to inhibit half of the ACE activity was defined as the IC50.

[5] = molecular target: T1, ACE; test: Stability of ACE inhibitory activity under simulated gastrointestinal hydrolysis; type: in vitro ADME
Procedure: as §1
The simulation intestinal digest mucus (pH 6.80 ± 0.10) was composited of 6 g bile salt, 0.07 g pancreatin, 12.5 g NaHCO3, and 200 mL ultrapure water. […] The ACE inhibitory activity of the DOPKGH peptide was determined using untreated DOPKGH peptides for comparison.

[6] = molecular target: T1, ACE; details: Val residue at the N-terminal; peptide from King Bolete mushrooms; ref Kaprasob et al., 2022; cited from earlier work
Excerpt: Moreover, Lys or Arg residues in C-terminal tripeptide are instrumental in the ACE-inhibitory ability of peptides ([Urbizo-Reyes et al., 2022]).

Compound: PHQPLPP
ACE inhibition IC50 ([1]; peptide identified in rubing cheese, ref Wei et al., 2022): 821 µg/mL

Compound: O=C([O-])[C@H](O)[C@@H](O)[C@H](O)[C@H](O)CO.O=C([O-])[C@H](O)[C@@H](O)[C@H](O)[C@H](O)CO.[Zn+2] [zinc gluconate, Zinc gluconate]
Zinc solubility compared with zinc sulfate [2]: higher zinc solubility than that of zinc sulfate

Compound: GNPLSP
IC50 ([1]; peptide derived from Arthrospira platensis, ref Wang et al., 2021, read-out: ACE inhibition IC50): 264 µM

Compound: QRLERCK [Gln-Arg-Leu-Asp-Arg-Cys-Lys, oligopeptide identified in defatted oil palm kernel globulin hydrolysates]
Zinc chelating capacity [3]: 17.30 ± 1.46^g mg/g

IC50 [4]: 103 µM
ACE-inhibitory activity retained after gastrointestinal digestion ([5]; simulated gastric (pepsin, pH 2.0, 80 min) then intestinal (pancreatin, pH 6.8, 150 min) digestion, 37°C, versus untreated peptide): 71.23%
IC50 ([5]; simulated gastric digest (pepsin 0.35 mg/mL, pH 2.0) 37°C 80 min, then intestinal digest (pancreatin, bile salt, pH 6.8) 37°C 150 min, regression y = 13.536ln(x) ‒ 17.297, R2 = 0.9528, read-out: IC50 against ACE after gastrointestinal digestion): 144 µM
Compound: EVPQAYIP

Compound: VSWNVLQEP [literature peptide identified in King Bolete mushrooms]
Binding energy with ACE [6]: -9.1 kcal/mol
